In patent publication US10111819B2 (The Procter & Gamble Company, priority 2015, dated 2018):

Assays:
[1] = target: T1, human TRPV1 receptor (Homo sapiens, UniProt Q8NER1, M315I/T336M); assay: FLIPR calcium flux, antagonists to CPC activation of TRPV1; assay type: cell-based; conditions: for Ca count CPC TRPV1 Receptor Antagonist / % inhibition of CPC activation: compound 1 mM (0.04% for extracts); for Ca count CPC TRPV1 Receptor Antagonist: 30 min preincubation, then CPC 100 uM; for inhibition at 1000 µM: read-out: % inhibition of CPC activation; for % inhibition of CPC activation: TRPV1, CPC 100 uM
T1 construct: expressed in transfected cells; host or cells: HEK-293
T1 sequence (Q8NER1 whole entry M315I/T336M): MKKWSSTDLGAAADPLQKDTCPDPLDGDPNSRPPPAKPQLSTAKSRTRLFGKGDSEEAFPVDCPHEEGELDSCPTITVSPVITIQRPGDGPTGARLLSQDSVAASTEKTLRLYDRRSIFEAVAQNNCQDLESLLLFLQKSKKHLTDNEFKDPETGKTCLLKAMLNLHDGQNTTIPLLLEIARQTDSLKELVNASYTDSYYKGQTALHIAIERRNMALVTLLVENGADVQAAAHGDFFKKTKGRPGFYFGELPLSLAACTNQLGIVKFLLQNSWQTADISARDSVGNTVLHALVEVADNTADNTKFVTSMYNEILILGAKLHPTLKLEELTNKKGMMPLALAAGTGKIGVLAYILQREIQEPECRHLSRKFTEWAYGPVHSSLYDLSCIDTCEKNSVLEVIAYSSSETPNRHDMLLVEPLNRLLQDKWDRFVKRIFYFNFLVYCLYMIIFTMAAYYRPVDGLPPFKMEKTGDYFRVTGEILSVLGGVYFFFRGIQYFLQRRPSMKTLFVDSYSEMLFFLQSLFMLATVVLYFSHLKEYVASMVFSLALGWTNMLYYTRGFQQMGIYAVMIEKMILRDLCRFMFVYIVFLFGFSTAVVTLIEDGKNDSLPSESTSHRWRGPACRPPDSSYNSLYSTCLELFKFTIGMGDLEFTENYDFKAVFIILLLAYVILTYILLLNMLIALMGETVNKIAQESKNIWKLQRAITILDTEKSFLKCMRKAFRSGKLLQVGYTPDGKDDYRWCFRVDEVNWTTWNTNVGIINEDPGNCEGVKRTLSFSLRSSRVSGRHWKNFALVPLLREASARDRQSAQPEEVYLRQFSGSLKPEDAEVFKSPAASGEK
Protocol: HEK-293 (human embryonic kidney) cells stably transfected with human TRPV1 receptor (SEQ ID NO. 1) were grown in 15 ml growth medium [high glucose DMEM (Dulbecco's Modification of Eagle's Medium) supplemented with 10% FBS (fetal bovine serum)], 100 μg/ml Penicillin/streptomycin, 100 μg/ml G418] in a 75 Cm^2 flask for 3 days at 33° C. in a mammalian cell culture incubator set at 5% CO2. Cells were detached with addition of 10 ml of PBS (phosphate buffered saline) by hand shaking gently. Cells were transferred to a 50 ml tube and centrifuged at 850 rpm for 3 minutes to remove PBS. After centrifugation, a pellet of cells is formed in the bottom of the tube separating them from the supernatant solution. The supernatant was discarded and the cell pellet is suspended in 1 ml of fresh growth medium to which 5 μl (12.5 μg) of Fluo-4 AM (Molecular Probes, Inc.) calcium indicator was added and incubated for 30 min with gentle shaking. Fluo-4 AM is a fluorescent dye used for quantifying cellular Ca^2+ concentrations in the 100 nM to […] range. At the end of the 30 minutes, 45 ml of assay buffer [1×HBSS (Hank's Balanced Salt Solution), 20 mM HEPES (4-(2-Hydroxyethyl)-1-piperazineethanesulfonic acid)] was added to wash cells and the resulting combination is then centrifuged at 850 rpm for 3 minutes to remove excess buffer and Fluo-4 AM calcium indicator; following centrifugation the assay buffer was removed. The pelleted cells were re-suspended in 10 ml assay buffer and 90 μl aliquots (˜50,000 cells) per well delivered to a 96-well assay plate containing compounds (final concentration 1 mM for pure compounds, 0.04% for extracts) or buffer control and incubated at room temperature for 30 minutes. After 30 minutes, the plate was placed into a fluorometric imaging plate reader (FLIPR^TETRA from Molecular Devices) and basal fluorescence recorded (excitation wave length 488 nm and emission wave length 510 nm). The FLIPR assay is an accepted method for detecting changes in intracellular calcium concentration. […] For determining the direct effect of test compounds on TRPV1 receptor, fluorescence was measured immediately after addition of each compound.

[2] = concentration level where the cooling effect can be clearly recognized; cited from earlier work
[3] = target: T2, human TRPA1 receptor (Homo sapiens, UniProt O75762, K186N/R3C/R58T); assay: FLIPR calcium flux, antagonists to CPC activation of TRPA1; assay type: cell-based; conditions: for % inhibition of CPC activation: TRPA1, CPC 100 uM; for % inhibition of CPC activation / Ca count CPC TRPA1 Receptor Antagonist: compound 1 mM (0.04% for extracts); for Ca count CPC TRPA1 Receptor Antagonist: 30 min preincubation, then CPC 100 uM; for inhibition at 1000 µM: read-out: % inhibition of CPC activation
T2 construct: expressed in transfected cells; host or cells: HEK-293
T2 sequence (O75762 whole entry R3C/R58T/K186N): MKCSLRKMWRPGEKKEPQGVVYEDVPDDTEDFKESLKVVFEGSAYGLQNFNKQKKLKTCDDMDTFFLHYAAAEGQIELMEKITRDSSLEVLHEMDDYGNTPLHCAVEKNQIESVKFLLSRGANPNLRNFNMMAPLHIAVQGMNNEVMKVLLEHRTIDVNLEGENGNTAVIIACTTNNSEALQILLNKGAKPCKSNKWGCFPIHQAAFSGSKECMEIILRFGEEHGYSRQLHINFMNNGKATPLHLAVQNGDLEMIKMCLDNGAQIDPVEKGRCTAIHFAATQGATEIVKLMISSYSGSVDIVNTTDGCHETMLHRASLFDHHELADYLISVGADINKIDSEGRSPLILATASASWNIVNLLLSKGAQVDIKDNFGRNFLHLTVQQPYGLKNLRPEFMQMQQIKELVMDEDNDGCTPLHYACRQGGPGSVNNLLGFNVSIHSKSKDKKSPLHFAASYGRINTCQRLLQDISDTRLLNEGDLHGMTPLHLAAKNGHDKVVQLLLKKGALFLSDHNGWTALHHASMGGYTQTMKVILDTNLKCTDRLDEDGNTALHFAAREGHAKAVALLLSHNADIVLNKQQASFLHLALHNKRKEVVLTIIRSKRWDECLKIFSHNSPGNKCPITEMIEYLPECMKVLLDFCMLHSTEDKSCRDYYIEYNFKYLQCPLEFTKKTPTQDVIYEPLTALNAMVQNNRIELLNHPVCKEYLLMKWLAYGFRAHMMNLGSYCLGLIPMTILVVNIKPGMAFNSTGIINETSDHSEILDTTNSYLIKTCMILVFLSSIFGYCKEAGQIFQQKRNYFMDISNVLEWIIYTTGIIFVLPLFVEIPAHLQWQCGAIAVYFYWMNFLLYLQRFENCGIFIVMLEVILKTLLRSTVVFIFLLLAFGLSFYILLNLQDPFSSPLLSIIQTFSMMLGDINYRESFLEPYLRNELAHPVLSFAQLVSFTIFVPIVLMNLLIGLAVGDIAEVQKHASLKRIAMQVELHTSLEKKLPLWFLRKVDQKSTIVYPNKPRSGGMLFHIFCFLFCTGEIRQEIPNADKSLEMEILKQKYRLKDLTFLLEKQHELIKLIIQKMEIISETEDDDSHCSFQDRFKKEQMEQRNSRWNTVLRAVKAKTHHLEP
Protocol: HEK-293 (human embryonic kidney) cells stably transfected with human TRPA1 receptor (SEQ ID NO. 2) were grown in 15 ml growth medium [high glucose DMEM (Dulbecco's Modification of Eagle's Medium) supplemented with 10% FBS (fetal bovine serum)], 100 μg/ml Penicillin/streptomycin, 100 μg/ml G418] in a 75 Cm^2 flask for 3 days at 37° C. in a mammalian cell culture incubator set at 5% CO2. Cells were detached with addition of 10 ml of PBS (phosphate buffered saline) by gentle hand shaking. Cells were transferred to a 50 ml tube and centrifuged at 850 rpm for 3 minutes to remove PBS. After centrifugation, a pellet of cells was formed in the bottom of the tube separating them from the supernatant solution. The supernatant was discarded and the cell pellet suspended in 1 ml of fresh growth medium to which 5 μl (12.5 μg) of Fluo-4 AM (Molecular Probes, Inc., Grand Island, N.Y.) calcium indicator was added and incubated for 30 min with gentle shaking. Fluo-4 AM is a fluorescent dye used for quantifying cellular Ca^2+ concentrations in the 100 nM to 1 microM range. At the end of the 30 minutes, 45 ml of assay buffer [1×HBSS (Hank's Balanced Salt Solution), 20 mM HEPES (4-(2-Hydroxyethyl)-1-piperazineethanesulfonic acid)] was added to wash cells and the resulting combination was then centrifuged at 850 rpm for 3 minutes to remove excess buffer and Fluo-4 AM calcium indicator; following centrifugation the assay buffer was removed. The pellet cells were re-suspended in 10 ml assay buffer and 90 μl aliquots (˜50,000 cells) per well delivered to a 96-well assay plate containing compounds (final concentration 1 mM for pure compounds, 0.04% for extracts) or buffer control and incubated at room temperature for 30 minutes. After 30 minutes, the plate was placed into a fluorometric imaging plate reader (FLIPR^TETRA from Molecular Devices, Sunnyvale, Calif.) and basal fluorescence recorded (excitation wave length 488 nm and emission wave length 510 nm). The FLIPR assay is an accepted method for detecting changes in intracellular calcium concentration. […] For determining the direct effect of test compounds on TRPA1 receptor, fluorescence was measured immediately after addition of each compound.

Row | Compound | Ca count CPC TRPV1 Receptor Antagonist [1] | inhibition at 1000 µM [1] | Ca count CPC TRPA1 Receptor Antagonist [3] | further results
1 | Nc1ccccc1C(=O)Oc1ccc2ccccc2c1 [2-Aminobenzoic Acid Naphthalen-2-Yl Ester] | 4172 count | 38.3% | – | –
2 | CCCCCC=CC(=O)O [2-Octenoic Acid, Predominantly Trans, 2-Octenoic Acid] | 2878 count | 78.3% | – | –
3 | CCCCCC=CC(C)=O [3-Nonen-2-one] | 3470 count | 43.6% | – | –
4 | CC(=O)CCc1ccc(O)cc1 [4-(4-Hydroxy-phenyl)-butan-2-one] | 1127 count | 67.8% | – | –
5 | COc1ccc(CCC(C)=O)cc1 [4-(4-Methoxyphenyl)-2-butanone] | 1218 count | 55.2% | – | –
6 | CCCC(=O)OC(C)(C)Cc1ccccc1 [Alpha,Alpha-Dimethylphenethyl Butyrate] | 4246 count | 45.2% | – | –
7 | CCCCOC(=O)C(C)C [Butyl Isobutyrate] | 1504 count | 57% | – | –
8 | CCCCCCCCCCOC(C)=O [Decyl Acetate] | 2079 count | 60.2% | – | –
9 | CC(C)[C@@H]1CC[C@@H](C)C[C@H]1O [L-menthol] | – | – | – | cooling threshold [2]: about 800 ppb
10 | O=S(=O)([O-])[O-].[Mg+2] [Magnesium sulfate] | – | – | – | % inhibition of CPC activation [1]: 88.1%
11 | Cc1occc(=O)c1OC(=O)C(C)C [Maltyl Isobutyrate] | – | – | 2882 count | % inhibition of CPC activation [3]: 46.3%
12 | COC(=O)CCCc1ccccc1 [Methyl 4-Phenylbutyrate] | 3469 count | 43.6% | – | –
13 | CC1(C)C2CC=C(CO)C1C2 (centres unmarked) [Myrtenol] | – | – | 440 count | % inhibition of CPC activation [3]: 86.04%; % inhibition of CPC activation ([3]; listed as myrtenol): 86%
14 | CC1CCC(C(C)(C)S)C(=O)C1 (centres unmarked) [P-mentha-8-thiol-3-one] | – | – | 3513 count | % inhibition of CPC activation [3]: 48.3%
15 | CC(C)[C@@H]1CC[C@@H](C)C[C@@H]1O [Rinse 1-neomenthol, 1-neomenthol] | – | – | – | cooling threshold [2]: about 3,000 ppb
16 | O=C(OC[C@H]1O[C@@H](OC(=O)c2cc(O)c(O)c(OC(=O)c3cc(O)c(O)c(O)c3)c2)[C@H](OC(=O)c2cc(O)c(O)c(OC(=O)c3cc(O)c(O)c(O)c3)c2)[C@@H](OC(=O)c2cc(O)c(O)c(OC(=O)c3cc(O)c(O)c(O)c3)c2)[C@@H]1OC(=O)c1cc(O)c(O)c(OC(=O)c2cc(O)c(O)c(O)c2)c1)c1cc(O)c(O)c(OC(=O)c2cc(O)c(O)c(O)c2)c1 [Tannic Acid] | – | – | 321 count | inhibition at 1000 µM [3]: 95.3%
17 | NCCc1ccc(O)cc1 [Uteramine] | 1093 count | 68.8% | – | –
18 | CC(=O)[O-].CC(=O)[O-].[Zn+2] [Zinc Acetate] | 1351 count | – | – | % inhibition of CPC activation [1]: 89.8%
19 | CC1=CCCC(C)(C)C1/C=C/C(C)O (stereo not drawn) [alpha-Ionol] | 2620 count | – | – | % inhibition of CPC activation [1]: 66.2%
20 | OC[C@H]1O[C@@H]2O[C@H]3[C@H](O)[C@@H](O)[C@@H](O[C@H]4[C@H](O)[C@@H](O)[C@@H](O[C@H]5[C@H](O)[C@@H](O)[C@@H](O[C@H]6[C@H](O)[C@@H](O)[C@@H](O[C@H]7[C@H](O)[C@@H](O)[C@@H](O[C@H]8[C@H](O)[C@@H](O)[C@@H](O[C@H]1[C@H](O)[C@H]2O)O[C@@H]8CO)O[C@@H]7CO)O[C@@H]6CO)O[C@@H]5CO)O[C@@H]4CO)O[C@@H]3CO [beta-Cyclodextrin] | – | – | 2324 count | inhibition at 1000 µM [3]: 56.7%
21 | CC1=C(/C=C/C(C)O)C(C)(C)CCC1 (stereo not drawn) [beta-Ionol] | 1265 count | – | – | % inhibition of CPC activation [1]: 65.9%
22 | CC(C)[C@@H]1CC[C@@H](C)C[C@@H]1O [d-neomenthol] | – | – | – | cooling threshold [2]: about 25,000 ppb
23 | CCCOC(=O)c1cc(O)c(O)c(O)c1 [n-propyl gallate] | – | – | 1844 count | inhibition at 1000 µM [3]: 65.6%
24 | Manganese Citrate | – | – | 4553 count | % inhibition of CPC activation [3]: 52.2%
25 | Manganese Gluconate | – | – | 2234 count | % inhibition of CPC activation [3]: 67.2%
